Data: publication PMC10578023 (Cell Communication and Signaling : CCS, 2023)
pIC50: −log10 of the molar value.

Tests used:
JAK2/JAK2 [1] = assay: TPO-stimulated pSTAT3/STAT5 in platelets of human whole blood; assay type: cell-based
Description: Stimulation was terminated by adding Lyse/Fix buffer. Staining with BUV786 mouse anti-human CD61 antibody (744384; BD Biosciences) was carried out, followed by washing, permeabilization and staining with PE mouse anti-human STAT3 antibody (651004; BD Biosciences) and APC mouse anti-human STAT5 antibody (562076; BD Biosciences), as described above. The expression of p-STAT3 and STAT5 was quantified by the MFI after the number of CD61-positive platelets was optimized.

JAK1/JAK3 [2] = assay: IL-2-stimulated pSTAT5 in human whole blood; assay type: cell-based
Description: With respect to IL-2-stimulated JAK1/3 activation in human whole blood cells, whole blood (50 μL) was preincubated with compounds for 30 min and then stimulated with IL-2 (20 ng/mL) for 15 min.
(§1) The stimulations stated above were terminated with prewarmed Lyse/Fix Buffer (558,049; BD Biosciences, San Jose, CA, USA) for 10 min. Cells were stained with an anti-cluster of differentiation (CD)3 fluorescein isothiocyanate (FITC) antibody (required for PBMCs but not for the other cell types), washed, and permeabilized on ice using Perm III Buffer (558,050; BD Biosciences) prior to staining with an Alexa Fluor 647 anti-phosphorylated (p)STAT5 (pY694) antibody for 30 min and analyzed by flow cytometry. Phosphorylation of STAT5 was quantified by the median fluorescence intensity (MFI) after gating on the CD3-positive population.

TYK2/JAK1 [3] = assay: IFNα HEK293 (HEK-Blue IFN-α/β) reporter gene assay; assay type: cell-based, human
Description: HEK-Blue™ IFN-α/β cells were used to determine the activity of QL-1200186. After 24 h of incubation with QL-1200186, HEK-Blue™ IFN-α/β cells (Invivogen; NKB-IFNAB) were stimulated with human IFNα (200 U/mL; catalog number: 11200–2; PBL Assay Science; Piscataway, NJ, USA) for 6 h. Stimulation of HEK-Blue IFN-α/β cells with human IFNα activates the JAK/STAT/ISGF3 pathway and subsequently induces the production of SEAP. Levels of SEAP in the supernatant were readily assessable using QUANTI-Blue™ Solution (InvivoGen, San Diego, CA, USA).

TYK2/JAK1 [4] = assay: IL-23 HEK293 reporter assay; assay type: cell-based, human
TYK2/JAK1 [5] = assay: IFNα-stimulated pSTAT5 in human PBMC (CD3+), FACS; assay type: cell-based
Description: With regard to IFNα-stimulated phosphorylation of STAT5 in human peripheral blood mononuclear cells (PBMCs), after incubation with QL-1200186 for 1 h, human PBMCs were stimulated with recombinant human IFNα (1000 U/mL; 11200–2; PBL Assay Science) for 30 min.
as §1

TYK2/JAK1 [6] = assay: IL-23-induced pSTAT3 in human Th17 cells; assay type: cell-based
Description: Human naïve CD4^+ T cells were separated using a human naïve CD4^+ T-cell isolation kit (StemCell, #17,852), and then cells were stimulated with anti-CD3 monoclonal antibody and anti-CD28 monoclonal antibody for 7–10 days under the following Th17-skewing treatments: IL-6, IL-23, IL-1β and transforming growth factor-β. Half of the medium was replaced with fresh medium containing a stimulant to induce differentiation every other day. Th17 cells were incubated overnight at 37 °C for deactivation. Cells were reinoculated on 96-well plates and cocultured with gradient-diluted QL-1200186 for 1 h and then stimulated with recombinant human IL-23 (ACRO: #IL-B-H52 WS) for 0.5 h. Cells were collected, and phosphorylation of STAT3 was quantified according to the MFI.

TYK2/JAK2 = assay: IL-12/IL-18-induced IFNγ production in NK-92 cells, ELISA; assay type: cell-based, human
Description: The inhibitory effect of QL-1200186 on IL-12/IL-18-induced IFNγ production in NK cells or human whole blood was determined by enzyme-linked immunosorbent assay (ELISA). NK92 cells were stimulated with recombinant human IL-12 (2 ng/mL; 200–12; PeproTech, Cranbury, NJ, USA) and recombinant human IL-18 (5 ng/mL; 9124-IL-050/CF; R&D Systems, Minneapolis, MN, USA) with or without QL-1200186 for 24 h at 37 °C. For human whole blood cells, whole blood (200 μL) was preincubated with the compound for 1 h and then stimulated with recombinant human IL-12 (2 ng/mL) or recombinant human IL-18 (10 ng/mL) for 24 h. After centrifugation, the supernatant was collected, and IFNγ production in the supernatant was measured with human IFNγ ELISA kits according to the manufacturer’s instructions (Biolegend, 430,104).

TYK2/JAK1 [7] = assay: IFNα-induced pSTAT1 in CD3+ T cells of human PBMCs; assay type: cell-based
Description: (§2) The reaction was terminated by collecting cells for surface staining. Cells were stained with anti-CD3 FITC (300406; Biolegend, San Diego, CA, USA), anti-CD19 APC (555415; BD Biosciences) or aqua fluorescent reactive dye BV421 (L34966A; Invitrogen, Carlsbad, CA, USA) antibodies for 20 min. After washing, fixation buffer (557870; BD Biosciences) was added and incubated for 10 min. Cells were washed and permeabilized on ice using Perm III Buffer (558050; BD Biosciences). Cells were stained with PE anti-PSTAT1 antibody (562069; BD Biosciences) for 30 min and analyzed by flow cytometry.

TYK2/JAK1 [8] = assay: IFNα-induced pSTAT1 in CD19+ B cells of human PBMCs; assay type: cell-based
Description: as §2

JAK1/JAK3 [9] = assay: IL-2-stimulated pSTAT5 in human PBMC; assay type: cell-based; conditions: @10μM
Description: With regard to IL-2-stimulated JAK1/3 activation in human PBMCs, after 1 h of incubation with QL-1200186, human PBMCs were stimulated with human IL-2 (20 ng/mL; C013; Novoprotein) for 20 min.
as §1

JAK2/JAK2 [10] = assay: GM-CSF-stimulated pSTAT5 in U937 cells; assay type: cell-based, human; conditions: @10μM
Description: With respect to GM-CSF-stimulated JAK2 activation in U937 cells (Cobioer Biosciences, CBP60277), after 1 h of treatment with QL-1200186, U937 cells were stimulated with GM-CSF (20 ng/mL; C003; Novoprotein, Suzhou, China) for 15 min.
as §1

`CNc1cc(Nc2cccn(-c3ccccn3)c2=O)nc2c(C(=O)N[C@@H]3CC[C@H]3OC)cnn12` [NDI-034858, reference compound] was tested, and the “activity in thrombopoietin (TPO)-induced JAK2/JAK2 signaling” value (JAK2/JAK2 [1]; human whole blood) was “no activity” and the “activity in IL-2-mediated JAK1/JAK3 signaling” value (JAK1/JAK3 [2]) was “no activity”.

For “deucravacitinib [BMS-986165, reference compound]”, the pIC50 (TYK2/JAK1 [3]) was 8.20, the pIC50 (TYK2/JAK1 [4]) was 8.19 and the pIC50 (TYK2/JAK1 [5]) was 7.72. It also gave a pIC50 (TYK2/JAK1 [6]) of 8.22, a pIC50 (TYK2/JAK2) of 7.41 and a pIC50 (TYK2/JAK1 [7]) of 8.11. The pIC50 (TYK2/JAK1 [8]) was 8.20, the “IL-2- pSTAT5 in PBMC (JAK1/JAK3) inhibition” value (JAK1/JAK3 [9]) was about 40% inhibition @10μM and the “GM-CSF-pSTAT5 in U937 (JAK2/JAK2) inhibition” value (JAK2/JAK2 [10]) was about 10% inhibition @10μM. The “TPO-pSTAT3/STAT5 in human whole blood (JAK2/JAK2) inhibition” value (JAK2/JAK2 [1]; @10μM) was “no inhibition @10μM” and the “activity in IL-2-mediated JAK1/JAK3 signaling” value (JAK1/JAK3 [2]) was “slight inhibitory effect”.
